# Values of other authors, collected in paper PMC4043931 (Chembiochem : a European journal of chemical biology, 2014).
# Legend:
# Conditions in all cases: listed for comparison; ref [7i], [10]
# [1] = test system: Klebsiella. pneumoniae (ATCC 13383)
# [2] = test system: Pseudomonas aeruginosa (ATCC 27853)
# [3] = test system: Methicillin-resistant Staphylococcus epidermidis (RP62A)
# [4] = test system: Vancomycin-resistant Enterococcus faecalis (ATCC 700802)
# [5] = test system: Methicillin-resistant Staphylococcus aureus (ATCC 33591)
# [6] = test system: human red blood cells (hRBC's)
substance,measurement,setting,value
Pexiganan,MIC K. pneumoniae,[1],8 µg/mL
same,MIC P. aeruginosa,[2],16 µg/mL
same,MIC S. epidermidis,[3],8 µg/mL
same,MIC E. faecalis,[4],32 µg/mL
same,MIC S. aureus,[5],16 µg/mL
same,Hemolysis HC50,[6],120 µg/mL
